Among the data in patent US10976310B2, “Ligand identification by co-fractionation” (MAX-PLANCK-GESELLSCHAFT ZUR FÖRDERUNG DER WISSENSCHAFTEN …, priority 2016, dated 2021) are Kd values, retold here.

Where “and” joins values, the source holds several entries; their conditions need not be identical. Equal entries are not always repeated.

For one assay, the target named is T1, Rbp47b (Arabidopsis thaliana, UniProt Q0WW84).
T1 sequence (Q0WW84 1-435): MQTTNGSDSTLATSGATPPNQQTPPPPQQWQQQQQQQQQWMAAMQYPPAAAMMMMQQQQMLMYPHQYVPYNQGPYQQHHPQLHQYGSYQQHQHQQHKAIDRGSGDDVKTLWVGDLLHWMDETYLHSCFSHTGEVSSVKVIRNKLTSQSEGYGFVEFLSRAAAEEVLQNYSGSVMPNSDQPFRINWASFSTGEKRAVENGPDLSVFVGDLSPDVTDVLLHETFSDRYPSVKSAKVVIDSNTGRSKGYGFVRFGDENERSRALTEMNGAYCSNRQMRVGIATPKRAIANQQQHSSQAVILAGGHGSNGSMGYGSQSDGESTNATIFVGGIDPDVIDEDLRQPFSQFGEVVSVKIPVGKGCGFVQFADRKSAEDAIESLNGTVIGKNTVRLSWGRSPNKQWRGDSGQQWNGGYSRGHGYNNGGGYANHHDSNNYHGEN
Briefly: MST measurement of ligand binding to recombinant Rbp47b. Particulars: His6-Rbp47b from E. coli, n=3. From the text:
We therefore attempted to determine the in vitro binding affinity biophysically using micro-scale thermophoresis (MST) (Jerabek-Willemsen et al. (2011) Molecular interaction studies using microscale thermophoresis. Assay Drug Dev Technol 9: 342-353). MST exploits the effect of size, charge, and hydration shell on the movement of molecules in a temperature gradient. Complex formation resulting in alteration of at least one of the three parameters leads to differential movement, from which the binding affinity can be determined. For the purpose of the MST experiment, Rbp47b was expressed in and purified from E. coli. […] The measured Kd value also corresponds to the ˜20 μM concentration of 2′,3′-cAMP measured in the native Arabidopsis lysate (FIG. 11B).
TIA1 protein was purchased from Origene (Herford, Germany). Rbp47b was cloned as a C-terminal GFP fusion (to increase protein solubility) into the E. coli expression vector pDEST14 containing His6-tag at the N-terminal of the Gateway (Karlsruhe, Germany) cassette. […]
Next day, cells were disrupted with an Avestin (Mannheim, Germany) EmulsiFlex C3 homogenizer and the protein was purified using imidazole-gradient purification in Ni-NTA agarose (Qiagen 34080, Hilden, Germany). […] Protein purity was assessed by SDS-PAGE and protein identification was done using western blot using anti-His6 antibodies. […]

For the next assay, the target named is T2, TIA1 (Homo sapiens, UniProt P31483).
T2 construct: purchased Origene (Herford, Germany)
T2 sequence (P31483 1-386): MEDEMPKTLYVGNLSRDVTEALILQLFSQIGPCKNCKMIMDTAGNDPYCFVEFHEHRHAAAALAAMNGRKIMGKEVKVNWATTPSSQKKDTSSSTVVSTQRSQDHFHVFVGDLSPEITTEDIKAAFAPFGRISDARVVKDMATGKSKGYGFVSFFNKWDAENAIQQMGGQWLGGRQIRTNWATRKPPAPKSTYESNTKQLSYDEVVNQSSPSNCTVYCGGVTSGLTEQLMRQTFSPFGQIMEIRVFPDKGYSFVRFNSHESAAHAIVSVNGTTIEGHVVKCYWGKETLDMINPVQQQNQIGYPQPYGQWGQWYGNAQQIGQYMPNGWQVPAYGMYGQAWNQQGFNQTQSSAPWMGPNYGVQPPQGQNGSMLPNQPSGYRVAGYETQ
Briefly: MST measurement of ligand binding to recombinant TIA1. Particulars: recombinant TIA1, n=3. How it is done: (§1) Expecting such a basic role of 2′,3′-cAMP to be conserved, we performed similar analysis with TIA1, the human functional homolog of Rbp47b. TIA1 was labeled and its interaction with 2′,3′-cAMP was determined using MST.
TIA1 protein was purchased from Origene (Herford, Germany). Rbp47b was cloned as a C-terminal GFP fusion (to increase protein solubility) into the E. coli expression vector pDEST14 containing His6-tag at the N-terminal of the Gateway (Karlsruhe, Germany) cassette. Rosetta cells expressing His6-Rbp47b-GFP were grown at 28° C. overnight and next day were moved to Terrific Broth medium supplied with 1% sucrose and relevant antibiotics. Cultures at OD 0.4 were induced by addition of 0.1 mM IPTG and transferred to 16° C. for overnight incubation.
MST measurements were performed using a Monolith NT.115 instrument (NanoTemper, München, Germany). Capillaries were loaded into the instrument as sets of 13-16 point ligand titrations. Proteins (Rb47b and TIA1) were labeled in phosphate buffer (PBS) using Monolith™ protein labeling kit RED-NHS (amine reactive; MO-L001) according to the manufacturers instruction. Excitation was optimized by varying the LED power to yield emission intensities above 200 AU, corresponding to 10-50 nM labeled protein. Monolith power was set to 60%. Ligands [2′,3′-cAMP (Sigma A9376)] and [3′,5′-cAMP (Sigma A6885)] were dissolved in PBS. […]

The target of a further assay is T3, TIA1 self-assembly (Homo sapiens, UniProt P31483).
T3 construct: purchased Origene (Herford, Germany)
T3 sequence (P31483 1-386): T2 sequence (P31483 1-386)
Briefly: MST measurement of TIA1 self-assembly. Type of assay: binding. The conditions noted are these: 500 μM 2′,3′-cAMP; in its absence Kd=36.28 nM (36 nM); read-out: Kd of TIA1 self-assembly in the presence of the ligand. How it is done: as §1
MST measurements were performed using a Monolith NT.115 instrument (NanoTemper, München, Germany). Capillaries were loaded into the instrument as sets of 13-16 point ligand titrations. Proteins (Rb47b and TIA1) were labeled in phosphate buffer (PBS) using Monolith™ protein labeling kit RED-NHS (amine reactive; MO-L001) according to the manufacturers instruction. Excitation was optimized by varying the LED power to yield emission intensities above 200 AU, corresponding to 10-50 nM labeled protein. Monolith power was set to 60%. Ligands [2′,3′-cAMP (Sigma A9376)] and [3′,5′-cAMP (Sigma A6885)] were dissolved in PBS. 0.5% Tween and premium coated capillaries were used to prevent sticking. Non-labeled TIA1 and Rbp47b were used as ligands in the self-assembly experiments. MO Affinity Analysis software was used to analyze (Kd calculation) and visualize the data. Presented data are from 2-3 technical replicates.

With `Nc1ncnc2c1ncn2[C@@H]1O[C@H](CO)[C@H]2OP(=O)(O)O[C@H]21` [2′,3′-cAMP], the Kd was 1020 nM and 1000 nM on Rbp47b; 217000 nM on TIA1; 20.6 nM and 20 nM at TIA1 self-assembly.

What is called Kd is the equilibrium constant for the complex coming apart.
